Experimental data taken from US20210030703A1, “USE OF CALORIC RESTRICTION MIMETICS FOR POTENTIATING CHEMO-IMMUNOTHERAPY FOR THE TREATMENT OF CANCERS” (INSERM (INSTITUT NATIONAL DE LA SANTÉ ET DE LA RECHERCHE …, priority 2018, published 2021).

Assays:
Type in all cases: in vivo, C57B1/6 mice
whole MCA205 tumors = experiment: RNA-seq analyses of whole tumors; details: day 3 post-chemotherapy (MTX); data not shown
PD-1 = PD-1 expression in tumors; details: MTX alone or together with fasting or CRMs; data not shown
Procedure: 3 or 11 days post-chemotherapy (d3 or d11), mice were euthanized and the tumors were withdrawn and placed in gentleMACS C tubes (ref 130-096-334 from Miltenyi Biotec™) previously filled with 1 ml of DMEM or RPMI medium, and immediately put on ice. After a mechanical (with scissors) and chemical digestion (thanks to the tumor dissociation kit and the gentleMACS Octo Dissociator, ref 130-096-730 and 130-096-427, respectively, from Miltenyi Biotec™), tumors were filtered (using MACS smartstrainers […], ref 130-110-916 from Miltenyi Biotec™), washed twice with PBS and distributed in a 96-wells round bottom plate.
Then, cells were stained with a live dead dye (ref L34959 from ThermoFisher Scientific™) and an FCblock receptor targeting antibody. […] Finally, cells were resuspended in FACS buffer and analyzed on a flow cytometer BD LSR II.

CTLA-4 = CTLA-4 expression in tumors; details: MTX alone or together with fasting or CRMs; data not shown

## O=C(O)CC(O)(C(=O)O)C(O)C(=O)O (stereo not drawn) [HC, hydroxycitrate]
Whole MCA205 tumors
  Evidence of local immunostimulation: failed to yield convincing evidence

## O=C1c2c(O)ccc(O)c2C(=O)c2c(NCCNCCO)ccc(NCCNCCO)c21 [MTX, mitoxantrone]
PD-1
  Expression of PD-1: No changes
CTLA-4
  Expression of CTLA-4: No changes
